# Results reported in ChEMBL document CHEMBL1145006 (J Med Chem, 2003).
# Starred links: 1 amine or outer side, 2 acyl side, 3 side chain; linkers in the order of their positions; H or OH if unused. Positions of bridges follow the written chain, without caps; N, C: chain ends. Non-standard residues stand in square brackets, D forms with d. Residues, ends and D or L forms follow the SMILES beside them. Groups on a side chain read outwards from the residue. *: point of attachment. Ethylenediamine = C(CN[*:2])N[*:1]; Hyp = O=C(O)[C@@H]1C[C@@H](O)CN1; Phg = N[C@H](C(=O)O)c1ccccc1; CO = O=C([*:1])[*:2]; Bn = c1ccc(C*)cc1
# Tests used:
# [1] = species: Rattus norvegicus; test: In vitro inhibition of GHRH induced GH release in primary cultures of rat pituitary cells; assay type: functional, cell-based; settings: Pituitary gland cell
# [2] = target: Somatostatin receptor type 3 (Homo sapiens, UniProt P32745); test: Binding affinity towards human Somatostatin receptor type 3 (sst3) using Tyr11-[125I]-SRIF as radioligand was determined in CHO cells; assay type: cell-based
# Sequence of Somatostatin receptor type 3 (P32745 whole entry): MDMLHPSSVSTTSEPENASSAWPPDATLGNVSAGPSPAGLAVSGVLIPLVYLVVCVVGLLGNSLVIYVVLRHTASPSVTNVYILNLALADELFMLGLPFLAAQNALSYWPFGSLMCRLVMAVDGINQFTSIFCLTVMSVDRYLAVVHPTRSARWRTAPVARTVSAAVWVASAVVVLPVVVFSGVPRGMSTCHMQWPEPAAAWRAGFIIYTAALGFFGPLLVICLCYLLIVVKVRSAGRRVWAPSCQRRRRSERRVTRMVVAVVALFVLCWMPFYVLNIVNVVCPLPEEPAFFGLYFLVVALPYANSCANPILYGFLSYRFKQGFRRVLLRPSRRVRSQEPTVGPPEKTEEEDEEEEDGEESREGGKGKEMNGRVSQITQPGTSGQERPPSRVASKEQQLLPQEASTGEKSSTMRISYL
# [3] = target: Somatostatin receptor type 2 (Homo sapiens, UniProt P30874); test: Binding affinity towards human Somatostatin receptor type 2 (sst2) using Tyr11-[125I]-SRIF as radioligand was determined in CHO cells; assay type: cell-based
# Sequence of Somatostatin receptor type 2 (P30874 whole entry): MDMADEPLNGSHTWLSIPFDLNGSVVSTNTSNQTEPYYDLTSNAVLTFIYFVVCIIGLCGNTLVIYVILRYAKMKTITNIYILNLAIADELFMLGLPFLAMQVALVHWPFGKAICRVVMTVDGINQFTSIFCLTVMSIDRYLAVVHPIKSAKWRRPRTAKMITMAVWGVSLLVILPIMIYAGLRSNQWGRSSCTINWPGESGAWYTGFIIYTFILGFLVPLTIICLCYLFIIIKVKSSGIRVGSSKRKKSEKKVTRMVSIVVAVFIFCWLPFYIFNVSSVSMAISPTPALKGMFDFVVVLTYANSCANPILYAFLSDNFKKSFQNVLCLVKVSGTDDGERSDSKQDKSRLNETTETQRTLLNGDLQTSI
# [4] = target: Somatostatin receptor type 5 (Homo sapiens, UniProt P35346); test: Binding affinity towards human Somatostatin receptor type 5 (sst5) using Tyr11-[125I]-SRIF as radioligand was determined in COS cell; assay type: cell-based
# Sequence of Somatostatin receptor type 5 (P35346 whole entry): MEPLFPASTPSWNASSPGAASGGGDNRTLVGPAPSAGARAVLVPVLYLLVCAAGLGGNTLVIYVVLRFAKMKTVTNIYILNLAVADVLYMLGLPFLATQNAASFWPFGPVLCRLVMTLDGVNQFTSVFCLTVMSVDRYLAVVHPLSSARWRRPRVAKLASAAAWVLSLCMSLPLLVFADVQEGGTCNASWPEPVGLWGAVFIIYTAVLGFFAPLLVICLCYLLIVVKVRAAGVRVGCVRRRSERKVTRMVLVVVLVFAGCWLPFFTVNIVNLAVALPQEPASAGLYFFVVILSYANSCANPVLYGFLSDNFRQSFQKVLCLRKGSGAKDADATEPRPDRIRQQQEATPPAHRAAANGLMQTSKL
# [5] = target: Somatostatin receptor type 4 (Homo sapiens, UniProt P31391); test: Binding affinity towards human Somatostatin receptor type 4 (sst4) using Tyr11-[125I]-SRIF as radioligand was determined in CHO cells; assay type: cell-based; settings: for Log Ki: cho
# Sequence of Somatostatin receptor type 4 (P31391 whole entry): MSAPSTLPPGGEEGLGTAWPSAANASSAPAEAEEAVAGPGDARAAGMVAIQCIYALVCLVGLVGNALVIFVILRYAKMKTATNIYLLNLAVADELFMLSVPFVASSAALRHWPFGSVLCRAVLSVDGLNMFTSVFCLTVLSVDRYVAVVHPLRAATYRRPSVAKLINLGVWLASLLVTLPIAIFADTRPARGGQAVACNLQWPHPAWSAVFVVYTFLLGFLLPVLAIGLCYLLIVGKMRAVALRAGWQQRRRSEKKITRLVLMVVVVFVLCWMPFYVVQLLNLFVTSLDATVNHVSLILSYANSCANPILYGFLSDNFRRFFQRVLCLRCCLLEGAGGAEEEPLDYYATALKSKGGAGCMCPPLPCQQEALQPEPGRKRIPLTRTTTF
# [6] = target: Somatostatin receptor type 1 (Homo sapiens, UniProt P30872); test: Binding affinity towards human Somatostatin receptor type 1 (sst1) using Tyr11-[125I]-SRIF as radioligand was determined in CHO cells; assay type: cell-based
# Sequence of Somatostatin receptor type 1 (P30872 whole entry): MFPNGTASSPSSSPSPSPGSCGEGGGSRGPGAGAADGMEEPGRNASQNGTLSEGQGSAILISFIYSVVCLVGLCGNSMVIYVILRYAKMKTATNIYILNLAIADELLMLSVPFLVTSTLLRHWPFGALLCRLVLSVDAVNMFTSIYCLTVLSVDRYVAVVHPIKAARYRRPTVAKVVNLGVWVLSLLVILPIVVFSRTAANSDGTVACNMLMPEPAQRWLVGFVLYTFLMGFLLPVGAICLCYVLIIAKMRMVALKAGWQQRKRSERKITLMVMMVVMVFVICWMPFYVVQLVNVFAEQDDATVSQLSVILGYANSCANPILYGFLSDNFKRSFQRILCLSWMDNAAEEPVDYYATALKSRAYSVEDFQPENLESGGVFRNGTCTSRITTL
Compound,IC50 [1] [nM],Ki [2] [nM],Ki [3] [nM],Ki [4] [nM],Log Ki [5],Ki [6] [nM],Ki [5] [nM]
NCCCC[C@@H]1NC(=O)[C@@H](Cc2c[nH]c3ccccc23)NC(=O)[C@H](c2ccccc2)NC(=O)[C@@H]2C[C@@H](OC(=O)NCCN)CN2C(=O)[C@H](Cc2ccccc2)NC(=O)[C@H](Cc2ccc(OCc3ccccc3)cc2)NC1=O [PASIREOTIDE] (cyclo(F[Hyp]([CO-Ethylenediamine])[Phg][dW]KY(Bn))),0.4,0.794,1,0.126,> -7,6.31,–
C[C@@H](O)[C@@H]1NC(=O)[C@H](CCCCN)NC(=O)[C@@H](Cc2c[nH]c3ccccc23)NC(=O)[C@H](Cc2ccccc2)NC(=O)[C@@H]2C[C@@H](O)CN2C(=O)[C@H](Cc2ccccc2)NC1=O (cyclo(F[Hyp]F[dW]KT)),–,200,0.2,> 1000,–,> 1000,> 1000
NCCCC[C@@H]1NC(=O)[C@@H](Cc2c[nH]c3ccccc23)NC(=O)[C@H](CCCN=C(N)N)NC(=O)[C@@H]2C[C@@H](OC(=O)NCCN)CN2C(=O)[C@H](Cc2ccccc2)NC(=O)[C@H](Cc2ccc(OCc3ccccc3)cc2)NC1=O,–,20,10,0.398,–,6.31,316
C[C@H](N)C(=O)NCC(=O)N[C@H]1CSSC[C@@H](C(N)=O)NC(=O)[C@H](CO)NC(=O)[C@H]([C@@H](C)O)NC(=O)[C@H](C)NC(=O)[C@H]([C@@H](C)O)NC(=O)[C@H](CCCCN)NC(=O)[C@H](Cc2c[nH]c3ccccc23)NC(=O)[C@H](Cc2ccccc2)NC(=O)[C@H](Cc2ccccc2)NC(=O)[C@H](CC(N)=O)NC(=O)[C@H](CCCCN)NC1=O (H-AGCKNFFWKTATSC-NH2; disulfide 3-14),–,7.94,6.31,6.31,> -9,0.631,–

# Continued, values first:
IC50 [1] [nM],Ki [2] [nM],Ki [3] [nM],Ki [4] [nM],Log Ki [5],Ki [6] [nM],Ki [5] [nM],Compound
–,0.631,0.126,0.158,> -9.7,0.251,–,C[C@H](N)C(=O)NCC(=O)N[C@H]1CSSC[C@@H](C(N)=O)NC(=O)[C@H](CO)NC(=O)[C@H]([C@@H](C)O)NC(=O)[C@H](Cc2ccccc2)NC(=O)[C@H]([C@@H](C)O)NC(=O)[C@H](CCCCN)NC(=O)[C@H](Cc2c[nH]c3ccccc23)NC(=O)[C@H](Cc2ccccc2)NC(=O)[C@H](Cc2ccccc2)NC(=O)[C@H](C)NC(=O)[C@H](CCCCN)NC1=O (H-AGCKAFFWKTFTSC-NH2; disulfide 3-14)
–,0.794,0.794,3.16,> -7,3.98,–,NCCCC[C@@H]1NC(=O)[C@@H](Cc2c[nH]c3ccccc23)NC(=O)[C@H](Cc2c[nH]cn2)NC(=O)[C@@H]2C[C@@H](OC(=O)NCCN)CN2C(=O)[C@H](Cc2ccccc2)NC(=O)[C@H](Cc2ccc(OCc3ccccc3)cc2)NC1=O
–,0.316,0.501,0.1,> -7,1.58,–,CN(C)CCNC(=O)O[C@@H]1C[C@H]2C(=O)N[C@@H](Cc3ccccc3)C(=O)N[C@H](Cc3c[nH]c4ccccc34)C(=O)N[C@@H](CCCCN)C(=O)N[C@@H](Cc3ccc(OCc4ccccc4)cc3)C(=O)N[C@@H](Cc3ccccc3)C(=O)N2C1
–,0.794,0.158,1.26,> -9.7,0.2,–,C[C@H](N)C(=O)N[C@@H](C)C(=O)N[C@H]1CSSC[C@@H](C(N)=O)NC(=O)[C@H](CO)NC(=O)[C@H]([C@@H](C)O)NC(=O)[C@H](Cc2ccccc2)NC(=O)[C@H]([C@@H](C)O)NC(=O)[C@H](CCCCN)NC(=O)[C@H](Cc2c[nH]c3ccccc23)NC(=O)[C@H](Cc2ccccc2)NC(=O)[C@H](Cc2ccccc2)NC(=O)[C@H](CC(N)=O)NC(=O)[C@H](CCCCN)NC1=O (H-AACKNFFWKTFTSC-NH2; disulfide 3-14)
–,2.51,0.501,1,> -9.5,0.794,–,C[C@H](N)C(=O)NCC(=O)N[C@H]1CSSC[C@@H](C(N)=O)NC(=O)[C@H](CO)NC(=O)[C@H]([C@@H](C)O)NC(=O)[C@H](Cc2ccccc2)NC(=O)[C@H]([C@@H](C)O)NC(=O)[C@H](CCCCN)NC(=O)[C@H](Cc2c[nH]c3ccccc23)NC(=O)[C@H](Cc2ccccc2)NC(=O)[C@H](Cc2ccccc2)NC(=O)[C@H](CC(N)=O)NC(=O)[C@H](C)NC1=O (H-AGCANFFWKTFTSC-NH2; disulfide 3-14)
